Patent US11699530B2, “Use of multivariate analysis to assess treatment approaches” (RENSSELAER POLYTECHNIC INSTITUTE, priority 2018, dated 2023)
Entries after “also recorded” stand apart in the source; their conditions may differ.

Experiments:
[1] = test system: FOCM/TS metabolic profiles of individuals with ASD; assay: FDA model evaluation of clinical trial treatment data (Type II error and discriminant score shift); format: in vivo, children; conditions: for Post-treatment Type II Error: PDF of post-treatment discriminant scores with respect to H0, 12 weeks (BH4: average of 8 and 16 weeks); for change in Type II error / correction of metabolic abnormalities (in words): comparison among treatments; for Effect Size (95% CI): median paired pre-to-post-treatment change in discriminant score, CI by bootstrap, 10,000 replications; for Change in Type II Error: pre- to post-treatment, with respect to H0
Experimental: MeCbl+LDFA Treatment Data. Subcutaneously injected MeCbl (75 μg/kg, once every three days) in combination with oral LDFA (400 μg, twice per day) was given to children with autism in a 12-week open-label trial. Included children were aged 2 to 7 years and met the diagnostic criteria for autism as defined by the DSM-IV in addition to having a Childhood Autism Rating Scales score greater than 30. Boys and girls made up 82% and 18% of participants in this study, respectively. The IRB at the University of Arkansas for Medical Sciences approved the protocol for this study.
BH4 Treatment Data. A 16-week open-label trial investigated the effects of orally administered BH4 (20 mg/kg, once per day) in children aged 2 to 6 years old with a previous diagnosis of ASD that was confirmed at the time of evaluation with DSM-IV criteria. […] Study participants were 90% males. Approval for this study was given by the IRB at the University of Texas Health Science Center at Houston, Tex. FOCM/TS markers were measured at 8 and 16 weeks following the onset of treatment in this trial; to maintain consistency with the other trials where markers were measured after 12 weeks, the averages of the measurements taken at 8 and 16 weeks were used.
HDFA Treatment Data. A double-blind placebo-controlled trial of HDFA (2 mg/kg per day up to a maximum of 50 mg daily, given orally) was administered over 12 weeks to children between 3 and 14 years of age. ASD diagnoses were made using the Autism Diagnostic Observation Schedule and/or Autism Diagnostic Interview—Revised, or by agreement between physician, psychologist, and speech therapist, or by a physician's diagnosis according to the Diagnostic and Statistical Manual of Mental Disorders, Fifth Edition with later confirmation by the investigators. All children were required to have documented language impairment. 78% of the treatment group were male while 80% of the placebo group were male. The protocol was approved by the IRB at the University of Arkansas for Medical Sciences. All data for participants receiving a placebo in the current analysis were provided.
Biochemical Measurements. Concentrations and ratios of metabolites in the FOCM and TS pathways were measured in each of the above studies, with fifteen measurements appearing in all four data sets. Six of these measures were associated with DNA methylation: methionine, S-adenosylmethionine (SAM), S-adenosylhomocysteine (SAH), the SAM/SAH ratio (an indicator of DNA methylation capacity), homocysteine, and adenosine. The remaining nine measures were precursors of glutathione or markers of redox metabolism: total cysteine, glutamylcysteine (Glu-Cys), cysteinylglycine (Cys-Gly), total and free reduced glutathione (tGSH and fGSH, respectively), oxidized glutathione (GSSG), the ratios of total and free reduced glutathione to oxidized glutathione (tGSH/GSSG and fGSH/GSSG, respectively; these are indicators of intracellular oxidative stress), and percent oxidized glutathione (a derived measure calculated as 2GSSG/[GSH+2GSSG]).
Fisher Discriminant Analysis. Individuals of the IMAGE study were separated into ASD and TD cohorts using Fisher discriminant analysis (FDA). FDA used the data matrix X of size n×m as input, where n study participants are each defined by m biochemical measurements. Sample information for study participant i was contained in row vector xi (size 1×m) and that participant's value for measurement j is indicated by xi,j. The input matrix X were considered as two matrices XASD and XTD taken to represent the separate samples for the ASD and TD cohorts, respectively, with XASD composed of nASD samples and XTD having nTD samples. […]

[2] = test system: ASD-related symptoms; conditions: cited from earlier work

Compound | Post-treatment Type II Error [1] [%] | 95% CI for the effect size relative to zero (in words) ([1]; bootstrap 95% CI of median change in discriminant score) | change in Type II error / correction of metabolic abnormalities (in words) [1] | Effect Size (95% CI) [1] | Change in Type II Error [1] | outcome of treatment (cerebrospinal fluid, symptoms and behavior) ([2]; ASD) | outcome of open-label and double-blind placebo-controlled studies ([2]; children with ASD)
Nc1nc(=O)c2c([nH]1)NCC(CNc1ccc(C(=O)N[C@@H](CCC(=O)O)C(=O)O)cc1)N2C=O (mixture of isomers) [HDFA, high-dose folinic acid] | 49.5 | contained zero | relatively small increase in Type II error | 0.17 | +17.2% |  | 
Nc1nc(=O)c2c([nH]1)NCC(CNc1ccc(C(=O)N[C@@H](CCC(=O)O)C(=O)O)cc1)N2C=O (mixture of isomers) [folinic acid, Folinic acid] |  |  |  |  |  | correct certain abnormalities of the cerebrospinal fluid and improve ASD-related symptoms and behavior | 
C[C@H](O)[C@H](O)[C@H]1CNc2nc(N)[nH]c(=O)c2N1 [BH4, tetrahydrobiopterin] | 41.1 |  |  | 0.73 | +40.8% |  | 
C/C1=C2/[N-][C@H]([C@H](CC(N)=O)[C@@]2(C)CCC(=O)NC[C@@H](C)OP(=O)([O-])O[C@H]2[C@@H](O)[C@@H](n3cnc4cc(C)c(C)cc43)O[C@@H]2CO)[C@]2(C)N=C(/C(C)=C3N=C(/C=C4N=C1[C@@H](CCC(N)=O)C\4(C)C)[C@@H](CCC(N)=O)[C@]\3(C)CC(N)=O)[C@@H](CCC(N)=O)[C@]2(C)CC(N)=O.[CH3-].[Co+3] [MeCbl, methylcobalamin] |  |  |  |  |  |  | improvement in metabolism and ASD-related symptoms
methylcobalamin (MeCbl) in combination with low-dose folinic acid (LDFA) [MeCbl + LDFA] | 43.6 |  | greatest correction in ASD-related metabolic abnormalities; also recorded: largest increase in Type II error | 0.89 | +41.9% |  | 
